Data on 4 compounds can be found in patent publication US20250345468A1, “COMBINATION TREATMENT OF SMALL-CELL LUNG CANCER” (ITM ISOTOPE TECHNOLOGIES MUNICH SE, priority 2022, published 2025).

Molecules are shown by their SMILES.

Series [1] concerns SSTR2. As to the kind of experiment: in vivo. To be noted: athymic nude, mouse, 10 MBq. More on the design: species or system athymic nude mice. The procedure:
(§1) H446 and H69 as SSTR2 expressing SCLC cell lines were subcutaneously inoculated into mice to establish a mouse xenograft model. The results were obtained from PET scans. […] By control experiments, the tumors were blocked with non-radioactive (non-labelled) DOTATOC (octreotide) for comparative reasons (“w/Block”).
(§2) Tumor accumulation of ^68Ga-DOTATOC (10 MBq) was evaluated in SCLC xenograft mouse model by subcutaneous inoculation of 2-3 mio SSTR2 expressing H446 and H69 cells, respectively, into athymic nude mice. The results (obtained from PET scans) shown in FIG. 8 reveal a visible uptake of ^68Ga-DOTATOC in the tumor after 4 hours p.i.

Series [2] has as its system SSTR2 expressing H69 cells. As to the kind of experiment: in vivo. Further details: species or system athymic nude mice. To be noted: mouse. The procedure: as §1, §2
The subject of series [3] is SSTR2. As to the kind of experiment: in vivo. More on the design: species or system athymic nude mice. To be noted: athymic nude, mouse, 10 MBq. The procedure: as §1, §2
This is another data set of the same source.

For a further series, the system named is H69 SCLC cells. As to the kind of experiment: Tumor growth delay and survival, H69 xenograft mouse model. To be noted: PARP inhibitor alone.
In another series the test system is PARP. To be noted: cited from earlier work.
A further series relates to H446 cells. As to the kind of experiment: Cell viability (IC50) assay in H446 SCLC cells. The series is classed as cell-based, human. The procedure: FIG. 1A: H446 and H69 cells treated with increasing concentrations of Rucaparib. […] (IC50 values: ^177Lu-DOTA-TOC: 8.9 kBq, ^177Lu-DOTATOC and 5 μM Rucaparib: 0.9 kBq, ^177LU-DOTATOC and 20 μM Rucaparib; 0.4 kBq)
(§3) FIG. 1A). […] At such concentrations, neither Rucaparib nor ^177Lu-DOTATOC, respectively, alone have any major impact on cell viability. The activity required for ^177Lu-DOTATOC to reduce cell viability to 50% by H446 cells in the combination treatment was reduced by a factor of 10 (5 μM Rucaparib) to 22 (20 μM Rucaparib).
(§4) Further evidence for such a synergistic effect was collected by analogous viability assays employing other PARP inhibitors, such as Olaparib and Talazoparib, in combination with ^177Lu-DOTATOC. The applied PARP inhibitor concentrations for combination therapy was adjusted depending on their individual cytotoxicity. […] That finding was proven in all cell lines.

The subject of the next series is H69 cells. As to the kind of experiment: Cell viability (IC50) assay in H69 SCLC cells. The series is classed as cell-based, human.
Text: FIG. 3A: Determination of the IC50 values of Rucaparib in the H446 and H69 cell lines. FIG. 3B: H446, FIG. 3C: H69 cell lines. Cell viability was studied upon combined cell treatment with Olaparib and ^177Lu-DOTA-TOC vs. ^177Lu-DOTA-TOC alone.
as §3, §4

Usually tissue uptake stands for the share of the injected amount in each gram of the tissue. In the case of `C[C@@H](O)[C@@H]1NC(=O)[C@H](CCCCN)NC(=O)[C@@H](Cc2c[nH]c3ccccc23)NC(=O)[C@H](Cc2ccc(O)cc2)NC(=O)[C@@H](NC(=O)[C@@H](Cc2ccccc2)NC(=O)CN2CCN(CC(=O)O)CCN(CC(=O)O)CCN(CC(=O)O)CC2)CSSC[C@@H](C(=O)N[C@H](CO)[C@@H](C)O)NC1=O` [^68Ga-DOTATOC, ^68Ga-DOTA-D-Phe-cyclo(Cys-Tyr-D-Trp-Lys-Thr-Cys)Thr(ol), metal not drawn], the tissue uptake at 4 h in the series on SSTR2 [1] and in the series with SSTR2 [3] was 1 to 3 %ID/g in each case. Moreover, the “Uptake in H69 cells relative to H446 cells” value in series [2] is given as approximately 2 fold.

For `O=C(c1cc(Cc2n[nH]c(=O)c3ccccc23)ccc1F)N1CCN(C(=O)C2CC2)CC1` [Olaparib], the “Anti-cancer effect of single therapy” value in the series with H69 SCLC cells is recorded as “did not result in major anti-cancer effects”.

For `Cn1ncnc1[C@H]1c2n[nH]c(=O)c3cc(F)cc(c23)N[C@@H]1c1ccc(F)cc1` [Talazoparib], the “Potency relative to olaparib” value in the series on PARP was “about 100 times”.

The IC50 is the midpoint of a concentration-inhibition curve. For `CNCc1ccc(-c2[nH]c3cc(F)cc4c3c2CCNC4=O)cc1` [Rucaparib], the Cell viability result with H446 cells (20 μM Rucaparib alone) and in the series with H69 cells (20 μM Rucaparib alone) was “slightly reduced” each time. The IC50 with H446 cells (Homo sapiens, NCI-H446, Rucaparib alone) was 32 µM; in the series with H69 cells (Homo sapiens, NCI-H69, Rucaparib alone) it was 36 µM. In the series with H69 SCLC cells, the “Anti-cancer effect of single therapy” value is “did not result in major anti-cancer effects”.
